According to PMC6331893, “Autodisplay of Human Hyaluronidase Hyal-1 on Escherichia coli and Identification of Plant-Derived Enzyme Inhibitors” (Molecules, 2015):
Like-named read-outs stand apart in the source and are kept apart here.

Target: T1, human hyaluronidase Hyal-1 (Homo sapiens, UniProt Q12794)
T1 construct: gene HYAL1
T1 sequence (Q12794 22-435): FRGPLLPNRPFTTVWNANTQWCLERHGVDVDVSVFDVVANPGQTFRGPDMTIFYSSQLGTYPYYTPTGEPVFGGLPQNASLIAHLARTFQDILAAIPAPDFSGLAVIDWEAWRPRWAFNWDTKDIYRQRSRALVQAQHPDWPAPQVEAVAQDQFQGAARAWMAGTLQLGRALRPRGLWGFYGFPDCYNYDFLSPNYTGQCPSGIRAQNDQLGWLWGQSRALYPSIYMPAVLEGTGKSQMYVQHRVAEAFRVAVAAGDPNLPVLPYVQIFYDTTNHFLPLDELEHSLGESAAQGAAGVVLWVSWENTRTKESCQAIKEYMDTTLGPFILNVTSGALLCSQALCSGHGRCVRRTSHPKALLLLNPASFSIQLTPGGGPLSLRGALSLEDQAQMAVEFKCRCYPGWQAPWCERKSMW
Assay: whole-cell "stains-all" hyaluronidase activity assay with surface-displayed Hyal-1, dose-response
Assay type: cell-based

Molecule	IC50 (read-out: IC50 Value) [µM]	IC50 [µM]
C[C@@H]1O[C@@H](O[C@H]2[C@H](OC(=O)[C@]34CCC(C)(C)C[C@H]3C3=CC[C@@H]5[C@@]6(C)CC[C@H](O[C@H]7O[C@H](C(=O)O)[C@@H](O)[C@H](O[C@@H]8OC[C@@H](O)[C@H](O)[C@H]8O)[C@H]7O[C@@H]7O[C@H](CO)[C@H](O)[C@H](O)[C@H]7O)[C@@](C)(C=O)[C@@H]6CC[C@@]5(C)[C@]3(C)CC4)O[C@H](C)[C@H](O[C@@H]3O[C@H](C)[C@@H](O)[C@H](O)[C@H]3O)[C@@H]2O)[C@H](O)[C@H](O)[C@H]1O[C@@H]1OC[C@@H](O)[C@H](O[C@@H]2OC[C@@H](O)[C@H](O)[C@H]2O)[C@H]1O [SA1641]	296	–
CC1(C)[C@@H](O[C@H]2O[C@H](C(=O)O)[C@@H](O)[C@H](O)[C@H]2O[C@@H]2O[C@H](C(=O)O)[C@@H](O)[C@H](O)[C@H]2O)CC[C@]2(C)[C@H]3C(=O)C=C4[C@@H]5C[C@@](C)(C(=O)O)CC[C@]5(C)CC[C@@]4(C)[C@]3(C)CC[C@@H]12 [glycyrrhizic acid]	–	177
gypsophila saponin 2	108	–
